In patent publication US9164103B2, “Monitoring and inhibiting human immunodeficiency virus infection by modulating HMGB1 dependent triggering of HIV-1 replication and persistence” (priority 2008, dated 2015):

Legend:
[1] = test system: iDCs; assay: aNK-induced apoptosis of uninfected iDCs (7-AAD assay, NK:DC 5:1); type: cell-based, human; conditions: NK:DC ratio 5:1, 24 h
Description: FIGS. 9(a)-(g). aNK-dependent apoptosis of iDCs is TNF-related apoptosis-inducing ligand (TRAIL)-dependent and involves the DR4 receptor. (a) CD56^+ NK cells were purified from the blood of healthy donors. NK cells were maintained in culture with suboptimal concentrations of interleukin-2 (IL-2) (100 ng/ml) (rNK cells) or activated (aNK cells) by the addition PHA (10 μg/ml) and IL-2 (10 μg/ml) to cultures. The intensity of staining with anti-CD56 antibodies allows the distinction between two NK cell populations expressing CD56 highly (CD56^bright cells) and weakly (CD56^dim cells). Data represent the mean±sd of three independent experiments. (b) Membrane TRAIL (mTRAIL) expression by NK cells is determined by flow cytometry with anti-CD56 and -mTRAIL specific antibodies. Data represent one of three independent experiments. […] The proportions of mTRAIL-expressing aNK cells among CD56^bright and CD56^dim populations were determined. […] DR4 expression at the DCs surface is analyzed after 1, 2, 3.5, 6 and 24 h of NK-DC coculture. […] Cell death was then quantified with the 7-AAD assay. […] (f) 24 h cell-free culture supernatants of iDCs, rNK cells, aNK cells (10^6/ml), or cocultures of aNK cells and iDCs (ratio 5:1) were tested for soluble TRAIL (sTRAIL) content. sTRAIL was quantified by ELISA. […] The viability status of DCs was determined by flow cytometry with the 7-AAD assay. […]

[2] = test system: iDCs cocultured with aNK cells; assay: aNK-dependent maturation of uninfected iDCs in aNK-iDC coculture (CD86/HLA-DR flow cytometry); type: cell-based, human; conditions: 24 h aNK-iDC coculture, inhibitor 10 μg/ml added at initiation
Description: (a) Left panel: iDCs were cultured for 24 h either alone or with aNK cells, in the presence of blocking anti-HMGB1 antibodies (10 μg/ml) or glycyrrhizin (10 μg/ml). The maturation status of DCs was determined by flow cytometry with CD86 and HLA-DR—specific antibodies. Right panel: same experiment, but performed with HIV-1 infected iDCs. Data represent mean±sd of at least three independent experiments, and statistical comparisons were made with the non parametric Mann-Whitney test. * p<0.05. […] NK cells were excluded from the analysis through the co-staining with CD3- and CD56-specific antibodies (CD3^−CD56^+).
To determine the possible involvement of HMGB1 in NK-dependent DC maturation, glycyrrhizin, which is known to interact specifically with soluble HMGB1 molecule31, was used as well as anti-HMGB1 antibodies (FIG. 3a). […] The possible involvement of RAGE during NK-DC cross-talk was evaluated with the same approach, comparing RAGE expression on DCs cocultured with aNK cells and DC cultured alone.
After 6 days of culture in the presence of IL-4 and GM-CSF, iDCs (10^6 cells/ml) were either non stimulated, or stimulated during 48 h with 10 μg/ml LPS (E. coli serotype 026-B6, Sigma-Aldrich) to obtain DC0 cells, or 500 ng/ml of trimeric CD40L (Sigma-Aldrich) to obtain DC1 cells, or 10 μg/ml of LPS and 1 μg/ml PGE2 (Sigma-Aldrich) to obtain DC2 cells. […]

[3] = test system: R5-HIV-1Ba-L; assay: HIV-1 replication in infected iDCs (p24 ELISA in culture supernatant); type: cell-based; conditions: for HIV-1 production (p24 in supernatant): 3 days, inhibitor 10 μg/ml
Description: FIGS. 6 (a), (b) and (c). Exogenous rh-HMGB1 triggers HIV-1 and HIV-2 replication in iDC. (a) HIV-1-infected iDC were cultured alone or in the presence of aNK cells for 3 days. Rh-HMGB1 (1 μg/ml) was added in some cultures. HIV replication was measured by p24 quantification in culture supernatant (b) HIV1-infected iDC were cultured alone or in the presence of aNK cells for 3 days. Blocking anti-HMGB1 antibodies (10 μg/ml) or glycyrrhizin (10 μg/ml) were added at culture initiation. HIV replication was measured by p24 quantification in culture supernatant. The mean±sd of three independent experiments is shown. Statistical comparisons were made with the non parametric Mann-Whitney test. * p<0.05; (c) HIV-2-infected iDC were cultured alone or in the presence of aNK cells for 3 days. Rh-HMGB1 (1 μg/ml) was added in some cultures. HIV replication was measured by p24 quantification in culture supernatant.
Exogenous HMGB1 was recently reported to increase HIV-1 replication in infected monocytic cell lines38, and to induce in vitro the reactivation of HIV-1 in PBMCs from HIV-1-infected patients under antiretroviral therapy39. Therefore, the question of the role of HMGB1 in the NK-dependent triggering of HIV replication in DCs was addressed. […] To investigate the influence of HMGB1 in the triggering of HIV-1 replication in infected-iDC-aNK cocultures, HMGB1-specific neutralizing antibodies or glycyrrhizin were added to these cocultures and p24 production was measured in the supernatant. […] They also indicate that aNK cell-dependent stimulation of HIV-1 replication in iDCs is mediated by HMGB1.
Virus stock preparation was prepared by amplification of R5-HIV-1Ba-L on MDM from healthy donors. Viral stock was then clarified by centrifugation prior to determination of HIV1 p24 concentration. iDCs were plated in 96-well culture plates at 200,000 cells/well and incubated for 3 hours at 37° C. in a 5% CO2 atmosphere with R5-HIV-1BAL at various concentrations (0.001 to 10 ng p24/ml). Cells were harvested, washed four times with media containing 10% FCS and, when indicated, rNK or aNK cells were added at a NK:DC ratio of 1:5, unless otherwise indicated. NK-DC cocultures lasted 24 h before analysis of the maturation stage of DCs and/or quantification of viral production. In some experiments (FIG. 6), HIV-1 infected iDCs were incubated alone or with aNK cells for 3 days, in the presence of rh-HMGB1 (1 μg/ml) (R&DSystems), and in some cultures in the presence of rabbit antiHMGB1 Abs (10 μg/ml) (Abcam, Cambridge, UK) or Glycyrrhizin (10 μg/ml).
The concentration of HIV-1 in the supernatant of infected cell cultures was determined by measuring the amount of p24 protein by ELISA (Ingen, Belgium). DNA from cells was extracted using the GIAamp DNA Blood Mini Kit (Qiagen, Basel, Switzerland) and quantified HIV-1 proviral load by RT-PCR as described previously54. The frequency of HIV-1-infected cells was determined by flow cytometry to detect intracellular p24 molecule. Cells were surface stained with antibodies specific for CD40 (BD Biosciences, San Jose, Calif.) to target DC and intracellular stained with p24-specific antibodies (Coulter). Stained cells were fixed in 1% PFA, immediately acquired on a FACScalibur (Becton Dickinson) and analyzed with FlowJo software. In some experiments infected DCs were imaged, after immunofluorescence, by laser scanning confocal microscopy.

[4] = test system: HIV-1-infected iDCs; assay: Apoptosis of HIV-1-infected iDCs (7-AAD assay); type: cell-based, human
Description: Living cells are 7-AAA^−, apoptotic cells 7-AAD^+, and apoptotic debris are 7-AAD^−FSC^low. Dot plots represent one of at least three independent experiments. […] Cell death was then quantified with the 7-AAD assay. The mean±sd of three independent experiments was presented.
(a) iDCs or HIV-1-infected iDCs were cultured alone or in the presence of aNK cells (NK:DC ratio of 5:1). […] Cell death was then quantified with the 7-AAD assay. (b) Same experiments were performed in the presence of blocking anti-HMGB1 antibodies (10 and 15 μg/ml). One representative experiment out of three conducted is shown.
Immature DCs (iDCs) were prepared from sorted monocytes from healthy donors, cultured for 6 days in the presence of IL-4 and GM-CSF. In some experiments, iDCs were infected with R5-HIV-1 (1 ng/ml of p24). Coculture experiments with autologous purified aNK cells (activated by PHA+IL-2) were performed at various NK:DC ratios. The influence of NK-DC interaction on DC's maturation and apoptosis was analyzed using multiparametric flow cytometry, combining 7-AAD staining with membrane and intracellular staining with mAbs specific for HLA-DR, DC-SIGN, CD83, CD86, DR4, mTRAIL, etc.
To investigate the impact of HIV on aNK-induced iDCs' apoptosis, iDCs were infected with R5-HIV-1 (1 ng of p24/ml).

## C/C=C/[C@H]1O[C@@](O)([C@@H](C)[C@H](O)[C@H](C)[C@H]2OC(=O)/C(OC)=C/C(C)=C/[C@@H](C)[C@@H](O)[C@@H](CC)[C@@H](O)[C@H](C)C/C(C)=C/C=C/[C@@H]2OC)C[C@@H](O[C@H]2C[C@@H](O)[C@H](OC(N)=O)[C@@H](C)O2)[C@@H]1C [Concanamycin A]
[1]
  NK-dependent iDCs apoptosis: no effect

## CC1(C)[C@@H](O[C@H]2O[C@H](C(=O)O)[C@@H](O)[C@H](O)[C@H]2O[C@@H]2O[C@H](C(=O)O)[C@@H](O)[C@H](O)[C@H]2O)CC[C@]2(C)[C@H]3C(=O)C=C4[C@@H]5C[C@@](C)(C(=O)O)CC[C@]5(C)CC[C@@]4(C)[C@]3(C)CC[C@@H]12 [glycyrrhizin]
[2]
  proportions of mature DCs (CD86bright HLA-DRbright): reduced the proportions of mature DCs
[3]; 24 h cultures of infected iDCs, absence of NK cells
  HIV-1 replication: decreased significantly HIV-1 replication
[3]; infected DC cocultured with aNK cells
  HIV-1 production (p24 in supernatant): abrogated HIV-1 production
[3]; infected DC cultured alone
  HIV-1 production (p24 in supernatant): abrogated HIV-1 production
[4]; NK:DC ratio 5:1, inhibition assays
  resistance of HIV-1-infected iDCs to aNK-induced apoptosis: found dependent on HMGB1

B1: rhs-TRAIL: recombinant human soluble TRAIL (protein, UniProt P50591 39-281, looked up)
extracellular domain: TNELKQMQDKYSKSGIACFLKEDDSYWDPNDEESMNSPCWQVKWQLRQLVRKMILRTSEETISTVQEKQQNISPLVRERGPQRVAAHITGTRGRSNTLSSPNSKNEKALGRKINSWESSRSGHSFLSNLHLRNGELVIHEKGFYYIYSQTYFRFQEEIKENTKNDKQMVQYIYKYTSYPDPILLMKSARNSCWSKDAEYGLYSIYQGGIFELKENDRIFVSVTNEHLIDMDHEASFFGAFLVG
modifications: extracellular domain
[4]; 24 h, 1-1000 ng/ml
  TRAIL-induced apoptosis of HIV-1-infected DCs: still susceptible to TRAIL-induced apoptosis
